Experimental data from ChEMBL document CHEMBL1909046, “DrugMatrix in vitro pharmacology data”.

Key:
Cathepsin G = target: T1, Cathepsin G (Homo sapiens, UniProt P08311); format: tissue-based; conditions: neutrophil;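 further: inhibition of Cathepsin G enzyme activity, tested on an AMC-conjugated peptide substrate; in other assays of this panel Not Active means under 50% inhibition at 10 µM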
T1 sequence (P08311 whole entry): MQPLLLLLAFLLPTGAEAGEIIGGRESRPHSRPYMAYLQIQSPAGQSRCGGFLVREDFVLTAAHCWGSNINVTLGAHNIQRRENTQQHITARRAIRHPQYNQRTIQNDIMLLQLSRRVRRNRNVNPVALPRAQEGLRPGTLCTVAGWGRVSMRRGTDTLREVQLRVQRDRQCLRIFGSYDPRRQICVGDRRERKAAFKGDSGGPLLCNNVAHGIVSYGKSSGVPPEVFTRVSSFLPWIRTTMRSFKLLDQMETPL

D(3) dopamine receptor = D(3) dopamine receptor (Homo sapiens, UniProt P35462); experiment: DRUGMATRIX: Dopamine D3 radioligand binding (ligand: [3H] Spiperone); format: cell membranes, CHO, Membrane
Melanocortin receptor 4 = Melanocortin receptor 4 (Homo sapiens, UniProt P32245); format: cell membranes, Membrane; conditions: hek293; further: in other assays of this panel Not Active means under 50% inhibition at 10 µM
[1] = target: T2, 5-hydroxytryptamine receptor 1A (Rattus norvegicus, UniProt P19327); format: cell membranes, CHO-K1, Membrane; further: in other assays of this panel Not Active means under 50% inhibition at 10 µM
T2 sequence (P19327 whole entry): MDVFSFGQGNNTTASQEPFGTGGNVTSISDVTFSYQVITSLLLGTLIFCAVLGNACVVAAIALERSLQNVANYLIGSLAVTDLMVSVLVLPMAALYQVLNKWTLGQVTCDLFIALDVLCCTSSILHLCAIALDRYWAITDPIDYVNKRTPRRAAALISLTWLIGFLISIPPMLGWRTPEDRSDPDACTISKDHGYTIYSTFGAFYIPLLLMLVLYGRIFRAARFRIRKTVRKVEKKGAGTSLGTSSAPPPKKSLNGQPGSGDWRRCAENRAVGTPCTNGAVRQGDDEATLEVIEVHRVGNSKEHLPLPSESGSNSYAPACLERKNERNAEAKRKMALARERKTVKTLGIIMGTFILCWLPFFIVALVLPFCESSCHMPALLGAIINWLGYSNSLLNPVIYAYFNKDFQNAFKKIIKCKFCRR

[2] = target: T3, Alpha-2C adrenergic receptor (Homo sapiens, UniProt P18825); experiment: DRUGMATRIX: Adrenergic Alpha-2C radioligand binding (ligand: [3H] MK-912); format: cell membranes, Sf9, Membrane; on IC50: call rule not given here
T3 sequence (P18825 whole entry): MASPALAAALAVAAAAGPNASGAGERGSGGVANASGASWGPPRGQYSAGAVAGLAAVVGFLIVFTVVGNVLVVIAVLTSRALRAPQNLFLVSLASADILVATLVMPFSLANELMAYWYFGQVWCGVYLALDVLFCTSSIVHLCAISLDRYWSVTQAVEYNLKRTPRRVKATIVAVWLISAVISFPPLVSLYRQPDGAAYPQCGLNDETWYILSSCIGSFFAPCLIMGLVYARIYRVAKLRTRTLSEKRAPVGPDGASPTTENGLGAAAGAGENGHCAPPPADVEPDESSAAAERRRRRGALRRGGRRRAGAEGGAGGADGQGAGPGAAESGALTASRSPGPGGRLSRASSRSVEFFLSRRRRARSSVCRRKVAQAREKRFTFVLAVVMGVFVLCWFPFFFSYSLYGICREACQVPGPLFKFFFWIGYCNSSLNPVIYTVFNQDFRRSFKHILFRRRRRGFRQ

Chain of D(3) dopamine receptor (P35462 whole entry): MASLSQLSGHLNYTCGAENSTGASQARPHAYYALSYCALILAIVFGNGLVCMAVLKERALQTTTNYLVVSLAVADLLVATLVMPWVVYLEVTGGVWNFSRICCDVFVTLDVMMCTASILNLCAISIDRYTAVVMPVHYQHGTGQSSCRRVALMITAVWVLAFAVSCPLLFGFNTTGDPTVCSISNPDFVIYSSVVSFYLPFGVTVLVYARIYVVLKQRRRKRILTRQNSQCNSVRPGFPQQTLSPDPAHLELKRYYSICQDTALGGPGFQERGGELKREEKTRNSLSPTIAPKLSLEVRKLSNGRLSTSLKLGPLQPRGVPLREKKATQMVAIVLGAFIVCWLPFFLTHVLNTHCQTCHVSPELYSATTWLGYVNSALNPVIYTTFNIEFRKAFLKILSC
Chain of Melanocortin receptor 4 (P32245 whole entry): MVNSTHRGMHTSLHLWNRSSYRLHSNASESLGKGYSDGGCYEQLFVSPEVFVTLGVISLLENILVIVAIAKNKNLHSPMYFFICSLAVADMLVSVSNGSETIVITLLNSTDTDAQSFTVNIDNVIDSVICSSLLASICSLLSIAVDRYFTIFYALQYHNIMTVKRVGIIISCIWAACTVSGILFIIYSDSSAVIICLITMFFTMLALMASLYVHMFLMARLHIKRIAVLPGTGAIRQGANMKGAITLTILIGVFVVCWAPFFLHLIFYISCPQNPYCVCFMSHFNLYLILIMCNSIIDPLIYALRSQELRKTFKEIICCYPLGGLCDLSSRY

Compound | IC50 (Cathepsin G) | IC50 (D(3) dopamine receptor; cho) | IC50 (Melanocortin receptor 4) | IC50 ([1]; cho-k1) | IC50 ([2]; sf9) | other results
STANNOUS FLUORIDE | Not Active | Not Active | Not Active | Not Active | Not Active | Ki (Cathepsin G): Not Active; Ki (D(3) dopamine receptor; cho): Not Active; Ki (Melanocortin receptor 4): Not Active; Ki ([1]; cho-k1): Not Active; Ki ([2]; sf9): Not Active
C[C@@H](O)[C@H]1C(=O)N2C(C(=O)O)=C(S[C@@H]3CN[C@H](C(=O)N(C)C)C3)[C@H](C)[C@H]12 [MEROPENEM] | Not Active | Not Active | Not Active | Not Active | Not Active | 
COc1ncnc(NS(=O)(=O)c2ccc(N)cc2)c1OC [SULFADOXINE] | Not Active | Not Active | Not Active | Not Active | Not Active | 
CCCc1nn(C)c2c(=O)[nH]c(-c3cc(S(=O)(=O)N4CCN(C)CC4)ccc3OCC)nc12 | Not Active | Not Active | Not Active | Not Active | Not Active | 
COc1ccc(/C=C/C(=O)Nc2ccccc2C(=O)O)cc1OC | Not Active | Not Active | Not Active | Not Active | Not Active | 
CC1=C(CC(=O)O)c2cc(F)ccc2/C1=C\c1ccc(S(C)(=O)=O)cc1 [EXISULIND] | Not Active | Not Active | Not Active | Not Active | Not Active | 
CN1C2CCCC1CC(NC(=O)c1nn(C)c3ccccc13)C2 (configuration not stated) [GRANISETRON] | Not Active | Not Active | Not Active | Not Active | Not Active | 
Cc1cn([C@H]2C[C@H](N=[N+]=[N-])[C@@H](CO)O2)c(=O)[nH]c1=O [ZIDOVUDINE] | Not Active | Not Active | Not Active | Not Active | Not Active | 
OCCN1CCN(CCCN2c3ccccc3Sc3ccc(C(F)(F)F)cc32)CC1 [FLUPHENAZINE] | Not Active |  | Not Active |  |  | IC50 ([1]; read-out: IC50): 1640 nM; Ki ([1]; read-out: Ki): 939 nM
CC(C)(C)NC[C@H](O)COc1nsnc1N1CCOCC1 [TIMOLOL] | Not Active | Not Active | Not Active |  | Not Active | IC50 ([1]; read-out: IC50): 2710 nM; Ki ([1]; read-out: Ki): 1550 nM
Nc1nc2c(c(=O)[nH]1)N(C=O)C(CNc1ccc(C(=O)N[C@@H](CCC(=O)O)C(=O)O)cc1)CN2 (some centres not stated) [LEUCOVORIN] | Not Active | Not Active | Not Active | Not Active | Not Active | 
O=c1n(CCCN2CCN(c3cccc(Cl)c3)CC2)nc2ccccn12 [TRAZODONE] | Not Active |  | Not Active |  |  | 
COc1cc(C(=O)NS(=O)(=O)c2ccccc2C)ccc1Cc1cn(C)c2ccc(NC(=O)OC3CCCC3)cc12 [ZAFIRLUKAST] | Not Active | Not Active | Not Active | Not Active | Not Active | 
CCOC(N)=O | Not Active | Not Active | Not Active | Not Active | Not Active | 
CN(CCOc1ccc(CC2SC(=O)NC2=O)cc1)c1ccccn1 (configuration not stated) [ROSIGLITAZONE] | Not Active | Not Active | Not Active | Not Active | Not Active | 
CC(=O)O[C@H]1C[C@@H]2CC[C@@H]3[C@H](CC[C@@]4(C)[C@H]3C[C@H]([N+]3(C)CCCCC3)[C@@H]4OC(C)=O)[C@@]2(C)C[C@@H]1N1CCCCC1.[Br-] [VECURONIUM BROMIDE] | Not Active | Not Active | Not Active | Not Active | Not Active | 
Nc1ccc(S(=O)(=O)Nc2ncccn2)cc1 [SULFADIAZINE] | Not Active | Not Active | Not Active | Not Active | Not Active | 

Compound | IC50 (Cathepsin G) | IC50 (D(3) dopamine receptor; cho) | IC50 (Melanocortin receptor 4) | IC50 ([1]; cho-k1) | IC50 ([2]; sf9) | other results
CCS(=O)(=O)CCn1c([N+](=O)[O-])cnc1C [TINIDAZOLE] | Not Active | Not Active | Not Active | Not Active | Not Active | 
Nc1ccc(S(=O)(=O)Nc2nccs2)cc1 [SULFATHIAZOLE] | Not Active | Not Active | Not Active | Not Active | Not Active | 
O=C(O)C(Cl)(Cl)Cl [TRICHLOROACETIC ACID] | Not Active | Not Active | Not Active | Not Active | Not Active | 
C=C(C)[C@H]1Cc2c(ccc3c2O[C@@H]2COc4cc(OC)c(OC)cc4[C@@H]2C3=O)O1 [ROTENONE] | Not Active | Not Active | Not Active | Not Active | Not Active | 
C#CCN(C)[C@H](C)Cc1ccccc1 [SELEGILINE] | Not Active | Not Active | Not Active | Not Active | Not Active | 
CC(C)OC(=O)C(C)(C)Oc1ccc(C(=O)c2ccc(Cl)cc2)cc1 [FENOFIBRATE] |  |  | Not Active | Not Active | Not Active | Ki (Cathepsin G): Not Active
CCN(CC)CC#CCOC(=O)C(O)(c1ccccc1)C1CCCCC1 (configuration not stated) [OXYBUTYNIN] | Not Active |  | Not Active | Not Active | Not Active | 
CC(=O)Nc1nnc(S(N)(=O)=O)s1 [ACETAZOLAMIDE] | Not Active | Not Active | Not Active | Not Active | Not Active | 
COc1cc(N)nc2[nH]c(-c3ccc(F)cc3)c(-c3ccncc3)c12 | Not Active | Not Active | Not Active | Not Active | Not Active | 
THIMEROSAL | Not Active |  | Not Active | Not Active |  | Ki (Cathepsin G): Not Active; IC50 (D(3) dopamine receptor; cho, read-out: IC50): 85 nM; Ki (D(3) dopamine receptor; cho, read-out: Ki): 29 nM; Ki (Melanocortin receptor 4): Not Active; Ki ([1]; cho-k1): Not Active; IC50 ([2]; sf9, read-out: IC50): 5040 nM; Ki ([2]; sf9, read-out: Ki): 732 nM
CNS(=O)(=O)Cc1ccc2[nH]cc(CCN(C)C)c2c1 | Not Active | Not Active | Not Active |  | Not Active | IC50 ([1]; read-out: IC50): 804 nM; Ki ([1]; read-out: Ki): 459 nM
CC[C@@H](CO)NC(=O)[C@@H]1C=C2c3cccc4c3c(cn4C)C[C@H]2N(C)C1 [METHYSERGIDE] | Not Active |  | Not Active |  | Not Active | IC50 (D(3) dopamine receptor; read-out: IC50): 172 nM; Ki (D(3) dopamine receptor; read-out: Ki): 59 nM; IC50 ([1]; read-out: IC50): 54 nM; Ki ([1]; read-out: Ki): 31 nM
C[C@]12CC[C@H]3[C@@H](CCC4=CC(=O)CC[C@@]43C)[C@@H]1CC[C@@H]2O [TESTOSTERONE] | Not Active | Not Active | Not Active | Not Active | Not Active | 
C[C@@H]1C[C@H]2[C@@H]3CCC4=CC(=O)C=C[C@]4(C)C3=CC[C@]2(C)[C@H]1C(=O)CN1CCN(c2cc(N3CCCC3)nc(N3CCCC3)n2)CC1 [TIRILAZAD] | Not Active | Not Active | Not Active | Not Active |  | IC50 ([2]; read-out: IC50): 7900 nM; Ki ([2]; read-out: Ki): 1150 nM
NC[C@H]1O[C@H](O[C@H]2[C@H](O)[C@@H](O[C@H]3O[C@H](CO)[C@@H](O)[C@H](N)[C@H]3O)[C@H](N)C[C@@H]2N)[C@H](N)C[C@@H]1O [TOBRAMYCIN] | Not Active | Not Active | Not Active | Not Active | Not Active | 
O=c1[nH]c2ccccc2n1CCCN1CCC(n2c(=O)[nH]c3cc(Cl)ccc32)CC1 [DOMPERIDONE] | Not Active |  | Not Active | Not Active |  | 
